Legend:
Assay in all cases: combination Emax (second highest fraction inhibited in the dose matrix, 72 h); higher = more inhibition; extreme values may be limits of the assay
[1] = test system: COR-L95 (Small Cell Lung Carcinoma)
Procedure, shortened: (§1)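 Bliss excess equals the observed combination effect minus the expected value EA + EB − EA·EB, where EA and EB are the effects of each agent alone. Combination Emax is the second-highest inhibition within the matrix. Inhibition was scaled from CellTiter-Glo 2.0 luminescence, with 0 set by vehicle wells and 1 by blank wells, after 72 hours of two-drug dosing of cells plated in 1536-well plates.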

[2] = test system: DB (B-Cell Non-Hodgkin's Lymphoma)
Procedure, shortened: as §1

ES7 (Ewing's Sarcoma) = test system: ES7 (Ewing's Sarcoma)
Procedure, shortened: as §1

[3] = test system: G-292-Clone-A141B1 (Osteosarcoma)
Procedure, shortened: as §1

[4] = test system: HT-29 (Colorectal Carcinoma)
Procedure, shortened: as §1

[5] = test system: IHH-4 (Thyroid Gland Carcinoma)
Procedure, shortened: as §1

[6] = test system: KARPAS-620 (Plasma Cell Myeloma)
Procedure, shortened: as §1

[7] = test system: MDA-MB-157 (Breast Carcinoma)
Procedure, shortened: as §1

[8] = test system: MDA-MB-231 (Breast Carcinoma)
Procedure, shortened: as §1

[9] = test system: MFH-ino (Other Solid Carcinomas)
Procedure, shortened: as §1

[10] = test system: NALM-6 (B-Lymphoblastic Leukemia)
Procedure, shortened: as §1

[11] = test system: NCI-H1299 (Non-Small Cell Lung Carcinoma)
Procedure, shortened: as §1

[12] = test system: NCI-H211 (Small Cell Lung Carcinoma)
Procedure, shortened: as §1

NCI-H2595 (Mesothelioma) = test system: NCI-H2595 (Mesothelioma)
Procedure, shortened: as §1

[13] = test system: OCI-AML2 (Acute Myeloid Leukemia)
Procedure, shortened: as §1

SN12C (Kidney Carcinoma) = test system: SN12C (Kidney Carcinoma)
Procedure, shortened: as §1

[14] = test system: SW1088 (Low Grade Glioma)
Procedure, shortened: as §1

[15] = test system: SW1783 (Low Grade Glioma)
Procedure, shortened: as §1

[16] = test system: SW1990 (Pancreatic Carcinoma)
Procedure, shortened: as §1

[17] = test system: TE-5 (Esophageal Squamous Cell Carcinoma)
Procedure, shortened: as §1

| Compound | combination Emax [1] | combination Emax [2] | combination Emax (ES7 (Ewing's Sarcoma)) | combination Emax [3] | combination Emax [4] | combination Emax [5] | combination Emax [6] | combination Emax [7] | combination Emax [8] | combination Emax [9] | combination Emax [10] | combination Emax [11] | combination Emax [12] | combination Emax (NCI-H2595 (Mesothelioma)) | combination Emax [13] | combination Emax (SN12C (Kidney Carcinoma)) | combination Emax [14] | combination Emax [15] | combination Emax [16] | combination Emax [17] |
| --- | --- | --- | --- | --- | --- | --- | --- | --- | --- | --- | --- | --- | --- | --- | --- | --- | --- | --- | --- | --- |
| C[C@@H](Nc1cc(F)cc(F)c1)c1cc(C(=O)N(C)C)cc2c(=O)cc(N3CCOCC3)oc12 [AZD8186] + CC(=O)c1c(C)c2cnc(Nc3ccc(N4CCNCC4)cn3)nc2n(C2CCCC2)c1=O [Palbociclib] (first compound max 10 µM, 7x7, partner max 10 µM) | 0.273 | 0.601 | 0.724 | 0.428 | 0.562 | 0.426 | 0.775 | 0.333 | 0.49 | 0.423 | 0.833 | 0.497 | 0.754 | 0.303 | 0.834 | 0.281 | 0.724 | 0.617 | 0.267 | 0.394 |
| O=C(c1cc(Cc2n[nH]c(=O)c3ccccc23)ccc1F)N1CCN(C(=O)C2CC2)CC1 [Olaparib] + Cc1c2c(nn1C)CSCc1cc(n(C)n1)CSc1cc(c3ccccc3c1)OCCCc1c(C(=O)O)n(C)c3c-2c(Cl)ccc13 [AZD5991] (first compound max 10 µM, 7x7, partner max 1 µM) | 0.395 | 0.994 | 0.942 | 0.109 | 0.0739 | 0.174 | 1 | 0.655 | 0.161 | 0.0277 | 0.74 | 0.0533 | 0.957 | 0.217 | 0.953 | 0.065 | 0.136 | 0.0425 | 0.238 | 0.0405 |
| C=CCn1c(=O)c2cnc(Nc3ccc(N4CCN(C)CC4)cc3)nc2n1-c1cccc(C(C)(C)O)n1 [AZD1775] + Nc1ccn([C@@H]2O[C@H](CO)[C@@H](O)C2(F)F)c(=O)n1 [Gemcitabine] (first compound max 1 µM, partner max 0.3 µM) | 0.411 | 0.952 | 0.983 | 0.317 | 0.884 | 1 | 0.548 | 0.917 | 0.78 | 0.68 | 0.958 | 0.818 | 0.998 | 0.344 | 1 | 0.576 | 0.581 | 0.684 | 0.384 | 0.568 |
| C[C@@H]1COCCN1c1cc(C2([S@](C)(=N)=O)CC2)nc(-c2ccnc3[nH]ccc23)n1 [AZD6738] + Nc1ccn([C@@H]2O[C@H](CO)[C@@H](O)C2(F)F)c(=O)n1 [Gemcitabine] (first compound max 10 µM, 7x7, partner max 0.3 µM) | 0.459 | 0.913 | 0.991 | 0.413 | 0.873 | 1 | 0.763 | 0.925 | 0.858 | 0.716 | 0.974 | 0.841 | 0.973 | 0.374 | 1 | 0.779 | 0.731 | 0.755 | 0.463 | 0.666 |
| Cc1cc2ncnn2cc1Nc1ncc2c(n1)n(C1CCOCC1)c(=O)n2C [AZD7648] + COc1cc([C@@H]2c3cc4c(cc3[C@@H](O[C@@H]3O[C@@H]5CO[C@@H](C)O[C@H]5[C@H](O)[C@H]3O)[C@H]3COC(=O)[C@H]23)OCO4)cc(OC)c1O [Etoposide] (first compound max 10 µM, 7x7, partner max 10 µM) | 0.551 | 0.907 | 0.977 | 0.321 | 0.711 | 0.956 | 0.786 | 0.855 | 0.842 | 0.665 | 1 | 0.649 | 0.968 | 0.446 | 1 | 0.641 | 0.574 | 0.706 | 0.337 | 0.668 |
| CS(=O)(=O)CCNCc1ccc(-c2ccc3ncnc(Nc4ccc(OCc5cccc(F)c5)c(Cl)c4)c3c2)o1 [Lapatinib] + Cn1cnc2c(F)c(Nc3ccc(Br)cc3Cl)c(C(=O)NOCCO)cc21 [Selumetinib] (first compound max 10 µM, 7x7, partner max 10 µM) | 0.207 | 0.63 | 0.559 | 0.192 | 0.958 | 0.563 | 0.72 | 0.262 | 0.631 | 0.462 | 0.847 | 0.338 | 0.876 | 0.25 | 1 | 0.28 | 0.349 | 0.216 | 0.465 | 0.369 |
| Cc1nc(-c2cn3c(n2)-c2ccc(-c4cnn(C(C)(C)C(N)=O)c4)cc2OCC3)n(C(C)C)n1 [Taselisib] + O=C(Nc1ccc2[nH]nc(-c3ccncc3)c2c1)[C@@H]1CCN(CC(=O)N2CCN(c3ccc(-c4ncccn4)cc3)CC2)C1 [SCH772984] (first compound max 10 µM, 7x7, partner max 5 µM) | 0.238 | 0.449 | 0.726 | 0.945 | 0.965 | 0.73 | 0.969 | 0.418 | 0.834 | 0.659 | 0.752 | 0.629 | 0.55 | 0.393 | 1 | 0.387 | 0.72 | 0.643 | 0.655 | 0.822 |
| C[C@@H](Oc1cc(-c2cnn(C3CCNCC3)c2)cnc1N)c1c(Cl)ccc(F)c1Cl [Crizotinib] + Cn1cnc2c(F)c(Nc3ccc(Br)cc3Cl)c(C(=O)NOCCO)cc21 [Selumetinib] (first compound max 10 µM, 7x7, partner max 10 µM) | 0.345 | 0.751 | 0.818 | 0.794 | 0.98 | 0.758 | 0.941 | 0.243 | 0.725 | 0.542 | 0.905 | 0.574 | 0.943 | 0.292 | 1 | 0.244 | 0.596 | 0.194 | 0.158 | 0.186 |
| O=C(c1cc(Cc2n[nH]c(=O)c3ccccc23)ccc1F)N1CCN(C(=O)C2CC2)CC1 [Olaparib] + CN(CC[C@H](CSC1=CC=CC=C1)NC2=C(C=C(C=C2)S(=O)(=O)NC(=O)C3=CC=C(C=C3)N4CCC(CC4)[C@H](C5=CC=CC=C5C6=CC=C(C=C6)Cl)O)S(=O)(=O)C(F)(F)F)CCO [AZD4320] (first compound max 10 µM, 7x7, partner max 1 µM) | 1 | 0.923 | 0.969 | 0.419 | 0.104 | 0.206 | 1 | 0.216 | 0.668 | 0.108 | 0.974 | 0.114 | 1 | 0.228 | 1 | 0.18 | 0.147 | 0.289 | 0.328 | 0.238 |
| Cc1c2c(nn1C)CSCc1cc(n(C)n1)CSc1cc(c3ccccc3c1)OCCCc1c(C(=O)O)n(C)c3c-2c(Cl)ccc13 [AZD5991] + CC(=O)O[C@H]1C(=O)[C@@]2(C)[C@H]([C@H](OC(=O)c3ccccc3)[C@]3(O)C[C@H](OC(=O)[C@H](O)[C@@H](NC(=O)c4ccccc4)c4ccccc4)C(C)=C1C3(C)C)[C@]1(OC(C)=O)CO[C@@H]1C[C@@H]2O [Paclitaxel] (first compound max 1 µM, 7x7, partner max 3 µM) | 0.399 | 1 | 0.958 | 0.398 | 0.77 | 0.932 | 1 | 0.977 | 0.498 | 0.416 | 0.969 | 0.734 | 1 | 0.703 | 1 | 0.44 | 0.776 | 0.706 | 0.496 | 0.699 |
| N#Cc1cnc(Nc2cc(NC[C@H]3CNCCO3)c(C(F)(F)F)cn2)cn1 [SRA737] + Nc1ccn([C@@H]2O[C@H](CO)[C@@H](O)C2(F)F)c(=O)n1 [Gemcitabine] (first compound max 10 µM, 7x7, partner max 0.3 µM) | 0.391 | 0.931 | 0.989 | 0.317 | 0.853 | 1 | 0.801 | 0.905 | 0.838 | 0.738 | 0.954 | 0.765 | 0.977 | 0.397 | 1 | 0.664 | 0.626 | 0.729 | 0.505 | 0.633 |
| C[C@@H]1COCCN1c1cc(C2([S@](C)(=N)=O)CC2)nc(-c2ccnc3[nH]ccc23)n1 [AZD6738] + C1CC(C1)(C(=O)[O-])C(=O)[O-].N.N.[Pt+2] [Carboplatin] (first compound max 10 µM, 7x7, partner max 10 µM) | – | 0.435 | 0.777 | 0.328 | 0.766 | 0.773 | 0.399 | 0.889 | 0.576 | 0.468 | 0.924 | 0.508 | 0.61 | 0.275 | 0.951 | 0.222 | 0.602 | 0.447 | 0.422 | 0.541 |

— the supplement of paper PMC11061612
